Experimental data taken from patent US20050250677A1, “Glycopeptide antibiotic derivatives” (priority 2002, published 2005).
Like-named read-outs stand apart in the source and are kept apart here.

Tests used:
Format in all cases: cell-based
[1] = system: HIV-2(ROD); test: Inhibition of HIV-2 (ROD)-induced cytopathicity (giant cell formation) in CEM cells; details: read-out: EC50 HIV-2 (concentration required to inhibit HIV-induced giant cell formation by 50%); HIV-2, CEM cell cultures
Experimental: (§1) A variety of glycopeptide antibiotic derivatives of vancomycin, eremomycin and teicoplanin including their aglycon derivatives were evaluated for their inhibitory activity against HIV-1 (IIIB) and HIV-2(ROD) in CEM cell cultures.

[2] = system: murine leukemia L1210; test: Cytostatic activity assay, L1210 cells; details: read-out: IC50 L1210 (compound concentration required to inhibit tumor cell proliferation by 50%)
[3] = system: human lymphocyte CEM; test: Cytostatic activity assay, CEM cells; details: read-out: IC50 CEM (compound concentration required to inhibit tumor cell proliferation by 50%)
[4] = system: HIV-1 (IIIB); test: Inhibition of HIV-1 (IIIB)-induced cytopathicity (giant cell formation) in CEM cells
Experimental: as §1

[5] = system: human lymphocyte Molt4/clone 8; test: Cytostatic activity assay, Molt4/clone 8 cells; details: read-out: IC50 Molt4/C8 (compound concentration required to inhibit tumor cell proliferation by 50%)
[6] = read-out: EC50 HIV-1 (concentration required to inhibit HIV-induced giant cell formation by 50%), HIV-1, CEM cell cultures

Molecule	EC50 [1] [µM]	IC50 [2] [µM]	IC50 [3] [µM]	EC50 [4, 6] [µM]	IC50 [5] [µM]	EC50 ([4]; HIV-1 (IIIB), CEM cell cultures, read-out: EC50 against HIV-1) [µM]
CCCCOc1ccc(CNC2C(Oc3c4cc5cc3Oc3ccc(cc3Cl)C(O)C3NC(=O)C(NC(=O)C5NC(=O)C5NC(=O)C(Cc6ccc(cc6)O4)NC(=O)C(N(C)Cc4ccc(OCCCC)cc4)c4ccc(O)c(c4)Oc4cc(O)c(Cl)c5c4)c4ccc(O)c(c4)-c4c(O)cc(O)cc4C(C(=O)NCCCN(C)C)NC3=O)OC(C(=O)NCCCN(C)C)C(O)C2O)cc1 (stereo not shown) [Compound 11]	> 10	20 ± 7.5	80 ± 6	5 ± 0.7	18 ± 2.5	–
C[N+](C)(C)CCCNC(=O)C1NC(=O)C2NC(=O)C(NC(=O)C3NC(=O)C4NC(=O)C(Cc5ccc(c(Cl)c5)Oc5cc3cc(c5O)Oc3ccc(cc3Cl)C2O)NC(=O)C(N)c2ccc(O)c(c2)Oc2cc(O)cc4c2)c2ccc(O)c(c2)-c2c1cc(O)c(CN1CCN(Cc3ccc(-c4ccccc4)cc3)CC1)c2O (stereo not shown) [Compound 29]	22 ± 3.5	26 ± 8.1	> 250	4.5 ± 0.7	35 ± 8.2	–
CCCCCCCCCC[N+](C)(C)CCCNCc1c(O)cc2c(c1O)-c1cc(ccc1O)C1NC(=O)C3NC(=O)C4NC(=O)C(Cc5ccc(cc5)Oc5cc3cc(c5OC3OC(C(=O)NCCCN(C)C)C(O)C(O)C3N)Oc3ccc(cc3Cl)C(O)C(NC1=O)C(=O)NC2C(=O)NCCCN(C)C)NC(=O)C(NC)c1ccc(O)c(c1)Oc1cc(O)c(Cl)c4c1 (stereo not shown) [Compound 14]	≥ 20	27 ± 0.3	92 ± 5	3.5 ± 0.7	22 ± 4.7	–
CNC(CC(C)C)C(=O)NC1C(=O)NC(CC(N)=O)C(=O)NC2C(=O)NC3C(=O)NC(C(=O)NC(C(=O)O)c4cc(O)cc(O)c4-c4cc3ccc4O)C(O)c3ccc(cc3)Oc3cc2cc(c3O)Oc2ccc(cc2Cl)C1O (stereo not shown) [Eremomycin aglycon]	250	> 500	> 500	50 ± 28	> 500	–
CCCCCCCCCC[N+](C)(C)CCCNCc1c(O)cc2c(c1O)-c1cc(ccc1O)C1NC(=O)C3NC(=O)C(CC(N)=O)NC(=O)C(NC(=O)C(CC(C)C)NC)C(O)c4ccc(c(Cl)c4)Oc4cc3cc(c4OC3OC(CO)C(O)C(O)C3OC3CC(C)(N)C(O)C(C)O3)Oc3ccc(cc3)C(OC3CC(C)(N)C(O)C(C)O3)C(NC1=O)C(=O)NC2C(=O)NCCCN(C)C (stereo not shown) [Compound 4]	> 20	16 ± 6	27 ± 7	7	33 ± 5	–
NCCCCCCCCCCNC(=O)C1NC(=O)C2NC(=O)C(NC(=O)C3NC(=O)C4NC(=O)C(Cc5ccc(c(Cl)c5)Oc5cc3cc(c5O)Oc3ccc(cc3Cl)C2O)NC(=O)C(N)c2ccc(O)c(c2)Oc2cc(O)cc4c2)c2ccc(O)c(c2)-c2c(O)cc(O)cc21 (stereo not shown) [Compound 43]	12.5 ± 3.5	≥ 500	402 ± 138	6.5 ± 0.7	225 ± 8	–
CCCCCCCCCC[N+]1(C)CCN(Cc2c(O)cc3c(c2O)-c2cc(ccc2O)C2NC(=O)C4NC(=O)C5NC(=O)C(Cc6ccc(c(Cl)c6)Oc6cc4cc(c6O)Oc4ccc(cc4Cl)C(O)C(NC2=O)C(=O)NC3C(=O)NCCCN(C)C)NC(=O)C(N)c2ccc(O)c(c2)Oc2cc(O)cc5c2)CC1 (stereo not shown) [Compound 38]	10	51 ± 9	> 100	2.1 ± 0.92	91 ± 13	–
CNC1C(=O)NC2Cc3ccc(cc3)Oc3cc4cc(c3OC3OC(C(=O)NCCC[N+](C)(C)Cc5ccc(-c6ccccc6)cc5)C(O)C(O)C3N)Oc3ccc(cc3Cl)C(O)C3NC(=O)C(NC(=O)C4NC(=O)C(NC2=O)c2cc(cc(O)c2Cl)Oc2cc1ccc2O)c1ccc(O)c(c1)-c1c(OC2OC(CO)C(O)C(O)C2O)cc(O)cc1C(C(=O)NCCC[N+](C)(C)Cc1ccc(-c2ccccc2)cc1)NC3=O (stereo not shown) [Compound 10]	> 10	44 ± 2.9	32 ± 5	4 ± 1.4	27 ± 14	–
CCCCCCCCCCNC(=O)C(N)CCCCNC(=O)C1NC(=O)C2NC(=O)C(NC(=O)C3NC(=O)C4NC(=O)C(Cc5ccc(c(Cl)c5)Oc5cc3cc(c5O)Oc3ccc(cc3Cl)C2O)NC(=O)C(N)c2ccc(O)c(c2)Oc2cc(O)cc4c2)c2ccc(O)c(c2)-c2c(O)cc(O)cc21 (stereo not shown) [Compound 23]	5.5 ± 0.7	5.7 ± 0.27	58 ± 35	2.6 ± 2	22 ± 22	–
Teicoplanin [reference compound]	100	> 500	> 500	18 ± 3.5	> 500	–
CCCCCCCCCC[N+](C)(C)CCCNCc1c(O)cc2c(c1O)-c1cc(ccc1O)C1NC(=O)C3NC(=O)C4NC(=O)C(Cc5ccc(c(Cl)c5)Oc5cc3cc(c5O)Oc3ccc(cc3Cl)C(O)C(NC1=O)C(=O)NC2C(=O)NCCCCCCN)NC(=O)C(N)c1ccc(O)c(c1)Oc1cc(O)cc4c1 (stereo not shown) [Compound 42]	7	38 ± 1	66 ± 2	1.8 ± 0.49	72 ± 6	–
CCCCc1ccc(CNCc2c(O)cc3c(c2O)-c2cc(ccc2O)C2NC(=O)C4NC(=O)C(CC(N)=O)NC(=O)C(NC(=O)C(CC(C)C)NC)C(O)c5ccc(c(Cl)c5)Oc5cc4cc(c5OC4OC(CO)C(O)C(O)C4OC4CC(C)(N)C(O)C(C)O4)Oc4ccc(cc4)C(OC4CC(C)(N)C(O)C(C)O4)C(NC2=O)C(=O)NC3C(=O)NC)cc1 (stereo not shown) [Compound 3]	20	22 ± 0.3	95 ± 14.1	5.1 ± 3.3	24 ± 18	–
C[C@@H](NC(=O)[C@@H](C)NC(=O)CCCCCNC(=O)C1NC(=O)C2NC(=O)C(NC(=O)C3NC(=O)C4NC(=O)C(Cc5ccc(c(Cl)c5)Oc5cc3cc(c5O)Oc3ccc(cc3Cl)C2O)NC(=O)C(NC(=O)OC(C)(C)C)c2ccc(O)c(c2)Oc2cc(O)cc4c2)c2ccc(O)c(c2)-c2c(O)cc(O)cc21)C(=O)O (stereo partly shown) [Compound 44]	25 ± 7	> 500	> 500	12.5 ± 3.5	> 500	–
CCCCCCCCCC[N+](C)(C)CCCNC(=O)C1NC(=O)C2NC(=O)C(NC(=O)C3NC(=O)C(CC(N)=O)NC(=O)C(NC(=O)C(CC(C)C)NC)C(O)c4ccc(c(Cl)c4)Oc4cc3cc(c4OC3OC(CO)C(O)C(O)C3OC3CC(C)(N)C(O)C(C)O3)Oc3ccc(cc3Cl)C2O)c2ccc(O)c(c2)-c2c(O)cc(O)cc21 (stereo not shown) [Compound 2]	> 50	60 ± 8	172 ± 15	5.5 ± 0.7	53 ± 1	12
CCCCc1ccc(CNC2C(Oc3c4cc5cc3Oc3ccc(cc3Cl)C(O)C3NC(=O)C(NC(=O)C5NC(=O)C5NC(=O)C(Cc6ccc(cc6)O4)NC(=O)C(NC)c4ccc(O)c(c4)Oc4cc(O)c(Cl)c5c4)c4ccc(O)c(c4)-c4c(O)cc(O)cc4C(C(=O)NCCCN(C)C)NC3=O)OC(C(=O)NCCCN(C)C)C(O)C2O)cc1 (stereo not shown) [Compound 12]	> 50	36 ± 14	> 250	12 ± 3.5	66 ± 20	–
CCCCc1ccc(CNCc2c(O)cc3c(c2O)-c2cc(ccc2O)C2NC(=O)C4NC(=O)C5NC(=O)C(Cc6ccc(c(Cl)c6)Oc6cc4cc(c6O)Oc4ccc(cc4Cl)C(O)C(NC2=O)C(=O)NC3C(=O)NC)NC(=O)C(N)c2ccc(O)c(c2)Oc2cc(O)cc5c2)cc1 (stereo not shown) [Compound 48]	12.3 ± 6.8	> 100	> 100	9.7 ± 9	> 100	–
O=C(NC1C(=O)NC2Cc3ccc(c(Cl)c3)Oc3cc4cc(c3O)Oc3ccc(cc3Cl)C(O)C3NC(=O)C(NC(=O)C4NC(=O)C(NC2=O)c2cc(O)cc(c2)Oc2cc1ccc2O)c1ccc(O)c(c1)-c1c(O)cc(O)cc1C(C(=O)O)NC3=O)OC12CC3CC(CC(C3)C1)C2 (stereo not shown) [Compound 49]	6 ± 1.4	22 ± 0.1	104 ± 3	13 ± 9.9	25 ± 0.99	–
CCCCCCCCCCNCc1c(O)cc2c(c1O)-c1cc(ccc1O)C1NC(=O)C3NC(=O)C4NC(=O)C(Cc5ccc(c(Cl)c5)Oc5cc3cc(c5O)Oc3ccc(cc3Cl)C(O)C(NC1=O)C(=O)NC2C(=O)NCCCN1CCCCC1C)NC(=O)C(N)c1ccc(O)c(c1)Oc1cc(O)cc4c1 (stereo not shown) [Compound 22]	7	57 ± 15	211 ± 1	1.3 ± 0.92	182 ± 31	–
CNCc1c(O)cc2c(c1O)-c1cc(ccc1O)C1NC(=O)C3NC(=O)C4NC(=O)C(Cc5ccc(c(Cl)c5)Oc5cc3cc(c5O)Oc3ccc(cc3Cl)C(O)C(NC1=O)C(=O)NC2C(=O)NC)NC(=O)C(N)c1ccc(O)c(c1)Oc1cc(O)cc4c1 (stereo not shown) [Compound 45]	17.5 ± 10.6	> 500	> 500	15 ± 7.1	> 500	–
CCCCCCCCCC[N+](C)(C)CCCNCc1c(O)cc2c(c1O)-c1cc(ccc1O)C1NC(=O)C3NC(=O)C4NC(=O)C(Cc5ccc(c(Cl)c5)Oc5cc3cc(c5O)Oc3ccc(cc3Cl)C(O)C(NC1=O)C(=O)NC2C(=O)NCCCN(C)C)NC(=O)C(N)c1ccc(O)c(c1)Oc1cc(O)cc4c1 (stereo not shown) [Compound 34]	4.5 ± 0.7	23 ± 11	50 ± 8	2.7 ± 1.84	68 ± 1	–
CN[C@H](CC(C)C)C(=O)N[C@H]1C(=O)N[C@@H](CC(N)=O)C(=O)N[C@H]2C(=O)N[C@H]3C(=O)N[C@H](C(=O)N[C@H](C(=O)O)c4cc(O)cc(O)c4-c4cc3ccc4O)[C@H](O)c3ccc(c(Cl)c3)Oc3cc2cc(c3O)Oc2ccc(cc2Cl)[C@H]1O [Vancomycin aglycon]	250	> 500	> 500	65 ± 7.1	> 500	–
